Some results are limits rather than exact numbers.

In the assay the target is T1, full-length ATR (Homo sapiens, UniProt Q13535).
T1 construct: in the presence of 5 nM full-length ATR
T1 sequence (Q13535 whole entry): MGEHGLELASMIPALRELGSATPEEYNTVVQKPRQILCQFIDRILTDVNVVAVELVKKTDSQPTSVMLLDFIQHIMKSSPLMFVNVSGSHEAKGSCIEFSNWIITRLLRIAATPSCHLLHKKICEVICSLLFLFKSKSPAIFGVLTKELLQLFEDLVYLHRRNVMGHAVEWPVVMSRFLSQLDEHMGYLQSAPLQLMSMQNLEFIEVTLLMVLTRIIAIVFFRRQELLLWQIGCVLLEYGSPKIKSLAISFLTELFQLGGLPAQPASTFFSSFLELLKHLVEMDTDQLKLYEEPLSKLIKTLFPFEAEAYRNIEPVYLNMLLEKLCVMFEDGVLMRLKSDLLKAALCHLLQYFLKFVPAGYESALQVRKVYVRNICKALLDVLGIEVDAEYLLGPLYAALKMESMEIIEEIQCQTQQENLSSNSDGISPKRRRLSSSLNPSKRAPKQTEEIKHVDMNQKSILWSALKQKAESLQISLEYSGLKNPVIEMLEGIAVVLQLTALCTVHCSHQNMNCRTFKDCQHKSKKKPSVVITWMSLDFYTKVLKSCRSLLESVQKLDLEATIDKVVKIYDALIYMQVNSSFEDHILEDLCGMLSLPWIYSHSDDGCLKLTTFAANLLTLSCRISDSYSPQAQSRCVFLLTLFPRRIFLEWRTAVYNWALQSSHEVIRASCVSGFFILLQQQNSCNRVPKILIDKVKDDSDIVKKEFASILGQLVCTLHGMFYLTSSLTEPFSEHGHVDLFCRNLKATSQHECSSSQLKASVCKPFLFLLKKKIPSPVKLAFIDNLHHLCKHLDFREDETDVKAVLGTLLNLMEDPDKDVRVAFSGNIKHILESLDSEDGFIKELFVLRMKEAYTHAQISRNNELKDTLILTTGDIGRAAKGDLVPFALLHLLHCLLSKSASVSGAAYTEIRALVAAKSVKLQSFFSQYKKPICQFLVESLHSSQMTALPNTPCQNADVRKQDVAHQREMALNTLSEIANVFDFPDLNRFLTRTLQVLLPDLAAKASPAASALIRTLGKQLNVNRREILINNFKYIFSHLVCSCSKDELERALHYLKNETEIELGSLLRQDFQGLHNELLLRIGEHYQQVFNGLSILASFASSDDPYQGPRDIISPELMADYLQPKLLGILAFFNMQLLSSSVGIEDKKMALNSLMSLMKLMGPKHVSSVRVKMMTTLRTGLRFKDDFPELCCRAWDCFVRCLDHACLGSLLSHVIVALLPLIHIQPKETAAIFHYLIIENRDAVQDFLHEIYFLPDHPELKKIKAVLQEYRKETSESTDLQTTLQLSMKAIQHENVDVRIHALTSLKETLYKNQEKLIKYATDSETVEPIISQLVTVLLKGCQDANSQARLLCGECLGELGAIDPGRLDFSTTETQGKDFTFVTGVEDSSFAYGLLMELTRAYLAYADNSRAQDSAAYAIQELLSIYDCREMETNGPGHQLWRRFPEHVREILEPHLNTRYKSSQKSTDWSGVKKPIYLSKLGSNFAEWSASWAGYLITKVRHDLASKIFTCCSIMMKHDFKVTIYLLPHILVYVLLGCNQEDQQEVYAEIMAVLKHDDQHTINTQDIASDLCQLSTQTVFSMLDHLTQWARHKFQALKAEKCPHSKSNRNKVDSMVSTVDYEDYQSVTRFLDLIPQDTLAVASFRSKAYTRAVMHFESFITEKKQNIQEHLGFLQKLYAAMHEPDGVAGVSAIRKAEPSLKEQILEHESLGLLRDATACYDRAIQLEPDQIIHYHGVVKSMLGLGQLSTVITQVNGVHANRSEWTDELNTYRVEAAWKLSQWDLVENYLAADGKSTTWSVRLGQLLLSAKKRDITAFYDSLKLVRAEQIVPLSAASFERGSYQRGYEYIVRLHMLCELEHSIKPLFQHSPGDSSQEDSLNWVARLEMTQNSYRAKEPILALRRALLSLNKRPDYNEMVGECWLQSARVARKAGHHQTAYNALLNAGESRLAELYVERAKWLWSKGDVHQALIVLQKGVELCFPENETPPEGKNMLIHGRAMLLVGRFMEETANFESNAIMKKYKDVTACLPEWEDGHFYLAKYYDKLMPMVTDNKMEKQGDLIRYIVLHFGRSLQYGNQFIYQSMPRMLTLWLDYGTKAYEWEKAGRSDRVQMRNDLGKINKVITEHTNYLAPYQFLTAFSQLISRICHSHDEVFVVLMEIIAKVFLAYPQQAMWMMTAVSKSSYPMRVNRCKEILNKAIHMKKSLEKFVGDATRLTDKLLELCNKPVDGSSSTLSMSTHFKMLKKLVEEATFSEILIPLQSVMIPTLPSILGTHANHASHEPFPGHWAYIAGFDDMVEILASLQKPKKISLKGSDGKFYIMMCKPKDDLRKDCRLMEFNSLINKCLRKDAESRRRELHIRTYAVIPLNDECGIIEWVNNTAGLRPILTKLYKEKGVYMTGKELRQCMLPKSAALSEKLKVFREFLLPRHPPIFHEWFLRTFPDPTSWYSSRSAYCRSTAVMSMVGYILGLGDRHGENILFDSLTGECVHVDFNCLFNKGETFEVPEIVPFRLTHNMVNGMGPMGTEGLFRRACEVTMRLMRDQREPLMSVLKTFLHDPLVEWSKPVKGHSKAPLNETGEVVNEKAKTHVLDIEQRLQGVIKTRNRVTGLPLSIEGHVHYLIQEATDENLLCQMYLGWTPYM
The assay can be described thus: ATR Inhibition Assay (radioactive-phosphate incorporation). Format: biochemical. Conditions: Ki(app); 5 nM full-length ATR, 10 μM ATP, 800 μM target peptide, 25° C. In a few lines: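 Buffer was 50 mM Tris/HCl pH 7.5, 10 mM MgCl2, 1 mM DTT, with 5 nM enzyme, 10 μM [γ-33P]ATP and 800 μM target peptide at 25 °C. Compound was pre-incubated 10 min before ATP start, and the reaction was stopped after 24 h. Phosphocellulose filter capture; Ki(app) came from non-linear regression of background-corrected initial rates.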
For the molecule `CC(C)C(=O)N1CCN(c2cnc(N)c(-c3nc4ccccc4[nH]3)n2)CC1` [Compound I-199, 1-(4-(5-amino-6-(1H-benzo[d]imidazol-2-yl)pyrazin-2-yl)piperazin-1-yl)-2-methylpropan-1-one], the Ki lay in the range of 1000 to 10000 nM. `CCS(=O)(=O)N1CCN(c2cnc(N)c(-c3nnc(-c4sccc4C)o3)n2)CC1` [Compound I-294, 5-(4-ethylsulfonylpiperazin-1-yl)-3-[5-(3-methyl-2-thienyl)-1,3,4-oxadiazol-2-yl]pyrazin-2-amine]: the Ki is < 100 nM. Take `CCCS(=O)(=O)N1CCN(c2cnc(N)c(C(=O)Nc3ccccn3)n2)CC1` [Compound I-240, 3-amino-6-(4-(propylsulfonyl)piperazin-1-yl)-N-(pyridin-2-yl)pyrazine-2-carboxamide]: the Ki was 100 to 1000 nM. For the molecule `COCCOCC(=O)N1CCN(c2cnc(N)c(-c3nc4ccccc4[nH]3)n2)CC1` [Compound I-264, 1-(4-(5-amino-6-(1H-benzo[d]imidazol-2-yl)pyrazin-2-yl)piperazin-1-yl)-2-(2-methoxyethoxy)ethanone], the Ki is 1000 to 10000 nM. The figure for `COc1cccc(N2CCN(c3cnc(N)c(-c4nc5ccc(C)cc5[nH]4)n3)CC2)c1` [Compound I-48, 5-(4-(3-methoxyphenyl)piperazin-1-yl)-3-(6-methyl-1H-benzo[d]imidazol-2-yl)pyrazin-2-amine] is 100 to 1000 nM; for `CCS(=O)(=O)N1CCN(c2cnc(N)c(-c3nnc(-c4cccs4)o3)n2)CC1` [Compound I-312, 5-(4-ethylsulfonylpiperazin-1-yl)-3-[5-(2-thienyl)-1,3,4-oxadiazol-2-yl]pyrazin-2-amine] it is 100 to 1000 nM. As for `Nc1ncc(N2CCNCC2)nc1-c1nc2ccccc2[nH]1` [Compound I-40, 3-(1H-benzo[d]imidazol-2-yl)-5-(piperazin-1-yl)pyrazin-2-amine], the Ki is 1000 to 10000 nM. As to `CCS(=O)(=O)N1CC=C(c2cnc(N)c(C(=O)Nc3ccccn3)n2)CC1` [Compound I-171, 3-amino-6-(1-(ethylsulfonyl)-1,2,3,6-tetrahydropyridin-4-yl)-N-(pyridin-2-yl)pyrazine-2-carboxamide], the Ki lay within 100 to 1000 nM.

Consider `CCS(=O)(=O)N1C2CCC1CN(c1cnc(N)c(-c3nnc(-c4ccc(CNC)cc4)o3)n1)C2` [Compound I-341, 5-(8-Ethylsulfonyl-3,8-diazabicyclo[3.2.1]octan-3-yl)-3-[5-[4-(methylaminomethyl)phenyl]-1,3,4-oxadiazol-2-yl]pyrazin-2-amine], for which the Ki fell in the range of 100 to 1000 nM. `CNCc1ccc(-c2nnc(-c3nc(N4CC[C@H](OC(=O)NCCOC)C4)cnc3N)o2)cc1` [Compound I-373, [(3S)-1-[5-Amino-6-[5-[4-(methylaminomethyl)phenyl]-1,3,4-oxadiazol-2-yl]pyrazin-2-yl]pyrrolidin-3-yl]N-(2-methoxyethyl)carbamate]: the Ki lay within 100 to 1000 nM. The result for `Nc1ncc(N2CCN(S(=O)(=O)c3ccsc3)CC2)nc1-c1nc2ccccc2[nH]1` [Compound I-80, 3-(1H-benzo[d]imidazol-2-yl)-5-(4-(thiophen-3-ylsulfonyl)piperazin-1-yl)pyrazin-2-amine] reads 100 to 1000 nM; that for `Nc1ncc(N2CCN(C(=O)Cc3ccccc3)CC2)nc1-c1nnc(-c2ccccc2)o1` [Compound I-197, 1-(4-(5-amino-6-(5-phenyl-1,3,4-oxadiazol-2-yl)pyrazin-2-yl)piperazin-1-yl)-2-phenylethanone], 100 to 1000 nM. For the molecule `Nc1ncc(N2CCN(S(=O)(=O)c3cccs3)CC2)nc1-c1nnc(-c2ccccc2)o1` [Compound I-96, 3-(5-phenyl-1,3,4-oxadiazol-2-yl)-5-(4-(thiophen-2-ylsulfonyl)piperazin-1-yl)pyrazin-2-amine], the Ki is 100 to 1000 nM.

As to `CCC(=O)N1C[C@@H]2C[C@@H]1CN2c1cnc(N)c(-c2nnc(-c3ccc(CNC)cc3)o2)n1` [Compound I-334, 1-[(1S,4R)-2-[5-Amino-6-[5-[4-(methylaminomethyl)phenyl]-1,3,4-oxadiazol-2-yl]pyrazin-2-yl]-2,5-diazabicyclo[2.2.1]heptan-5-yl]propan-1-one], the Ki is 100 to 1000 nM.

`Nc1ncc(C2=CCN(S(=O)(=O)c3ccoc3)CC2)nc1-c1nnc(-c2ccccc2)o1` [Compound I-123, 5-(1-(furan-3-ylsulfonyl)-1,2,3,6-tetrahydropyridin-4-yl)-3-(5-phenyl-1,3,4-oxadiazol-2-yl)pyrazin-2-amine]: the Ki was < 100 nM. Take `Nc1ncc(N2CCC3(CCNC3)C2)nc1-c1nnc(-c2ccccc2)o1` (stereo not shown) [Compound I-340, 3-(5-Phenyl-1,3,4-oxadiazol-2-yl)-5-(2,7-diazaspiro[4.4]nonan-2-yl)pyrazin-2-amine]: the Ki lay within 1000 to 10000 nM. Turning to `COC1CCN(c2cnc(N)c(-c3nc4ccc(C)cc4[nH]3)n2)CC1` [Compound I-12, 5-(4-methoxypiperidin-1-yl)-3-(6-methyl-1H-benzo[d]imidazol-2-yl)pyrazin-2-amine], the Ki fell in the range of 1000 to 10000 nM. Take `Nc1ncc(C2=CCN(C(=O)N3CCCC3)CC2)nc1-c1nnc(-c2ccccc2)o1` [Compound I-226, (4-(5-amino-6-(5-phenyl-1,3,4-oxadiazol-2-yl)pyrazin-2-yl)-5,6-dihydropyridin-1(2H)-yl)(pyrrolidin-1-yl)methanone]: the Ki is < 100 nM.

In the case of `Cn1cnc(S(=O)(=O)N2CC=C(c3cnc(N)c(-c4nc5ccccc5[nH]4)n3)CC2)c1` [Compound I-94, 3-(1H-benzo[d]imidazol-2-yl)-5-(1-(1-methyl-1H-imidazol-4-ylsulfonyl)-1,2,3,6-tetrahydropyridin-4-yl)pyrazin-2-amine], the Ki was < 100 nM. For the molecule `Nc1ncc(N2CCN(S(=O)(=O)Cc3ccccc3)CC2)nc1-c1nnc(-c2ccccc2)o1` [Compound I-99, 5-(4-(benzylsulfonyl)piperazin-1-yl)-3-(5-phenyl-1,3,4-oxadiazol-2-yl)pyrazin-2-amine], the Ki was in the range of 100 to 1000 nM. Regarding `COCC(=O)N1CCN(c2cnc(N)c(C(=O)Nc3ccccn3)n2)CC1` [Compound I-147, 3-amino-6-(4-(2-methoxyethanoyl)piperazin-1-yl)-N-(pyridin-2-yl)pyrazine-2-carboxamide], the Ki is 1000 to 10000 nM. In the case of `Nc1ncc(C2=CCN(C(=O)C3CCCC3)CC2)nc1-c1nc2ccccc2[nH]1` [Compound I-206, (4-(5-amino-6-(1H-benzo[d]imidazol-2-yl)pyrazin-2-yl)-5,6-dihydropyridin-1(2H)-yl)(cyclopentyl)methanone], the Ki lay within 100 to 1000 nM. For `Cc1ccc2nc(-c3nc(N4CCC(C(F)(F)F)CC4)cnc3N)[nH]c2c1` [Compound I-31, 3-(6-methyl-1H-benzo[d]imidazol-2-yl)-5-(4-(trifluoromethyl)piperidin-1-yl)pyrazin-2-amine], the Ki is 1000 to 10000 nM. The figure for `Nc1ncc(N2CCN(C(=O)C3CCC3)CC2)nc1-c1nc2ccccc2[nH]1` [Compound I-174, (4-(5-amino-6-(1H-benzo[d]imidazol-2-yl)pyrazin-2-yl)piperazin-1-yl)(cyclobutyl)methanone] is 1000 to 10000 nM; for `Cc1ccc2nc(-c3nc(N4CCC(C(=O)c5ccccc5)CC4)cnc3N)[nH]c2c1` [Compound I-63, (1-(5-amino-6-(6-methyl-1H-benzo[d]imidazol-2-yl)pyrazin-2-yl)piperidin-4-yl)(phenyl)methanone] it is 100 to 1000 nM; for `Nc1ncc(C2=CCN(C(=O)C3CCCCC3)CC2)nc1-c1nc2ccccc2[nH]1` [Compound I-259, (4-(5-amino-6-(1H-benzo[d]imidazol-2-yl)pyrazin-2-yl)-5,6-dihydropyridin-1(2H)-yl)(cyclohexyl)methanone] it is < 100 nM. Turning to `Nc1ncc(N2CC=C(c3nccs3)CC2)nc1-c1nnc(-c2ccccc2)o1` [Compound I-290, 3-(5-phenyl-1,3,4-oxadiazol-2-yl)-5-(4-thiazol-2-yl-3,6-dihydro-2H-pyridin-1-yl)pyrazin-2-amine], the Ki is 100 to 1000 nM. Consider `Cc1ccc2nc(-c3nc(N4CCC(C#N)CC4)cnc3N)[nH]c2c1` [Compound I-34, 1-(5-amino-6-(6-methyl-1H-benzo[d]imidazol-2-yl)pyrazin-2-yl)piperidine-4-carbonitrile], for which the Ki lay within 1000 to 10000 nM. Turning to `Nc1ncc(N2CCN(S(=O)(=O)c3ccoc3)CC2)nc1C(=O)Nc1ccccn1` [Compound I-119, 3-amino-6-(4-(furan-3-ylsulfonyl)piperazin-1-yl)-N-(pyridin-2-yl)pyrazine-2-carboxamide], the Ki lay in the range of 100 to 1000 nM. In the case of `CCS(=O)(=O)N1CCN(c2cnc(N)c(-c3nnc(-c4ccccc4)o3)n2)CC1` [Compound I-18, 5-(4-(ethylsulfonyl)piperazin-1-yl)-3-(5-phenyl-1,3,4-oxadiazol-2-yl)pyrazin-2-amine], the Ki was < 100 nM. In the case of `Nc1ncc(N2CC[C@H](NC(=O)C3CCCC3)C2)nc1-c1nc2ccccc2[nH]1` [Compound I-204, (S)-N-(1-(5-amino-6-(1H-benzo[d]imidazol-2-yl)pyrazin-2-yl)pyrrolidin-3-yl)cyclopentanecarboxamide], the Ki lay in the range of 100 to 1000 nM. Take `CCOC(=O)N1CCN(c2cnc(N)c(-c3nc4ccccc4[nH]3)n2)CC1` [Compound I-271, ethyl 4-(5-amino-6-(1H-benzo[d]imidazol-2-yl)pyrazin-2-yl)piperazine-1-carboxylate]: the Ki was 1000 to 10000 nM.

Turning to `Nc1ncc(C2=CCN(S(=O)(=O)C3CC3)CC2)nc1-c1nc2ccccc2[nH]1` [Compound I-93, 3-(1H-benzo[d]imidazol-2-yl)-5-(1-(cyclopropylsulfonyl)-1,2,3,6-tetrahydropyridin-4-yl)pyrazin-2-amine], the Ki was < 100 nM. `Nc1ncc(N2CC[C@H](NC(=O)c3ccccc3)C2)nc1-c1nc2ccccc2[nH]1` [Compound I-108, (S)-N-(1-(5-amino-6-(1H-benzo[d]imidazol-2-yl)pyrazin-2-yl)pyrrolidin-3-yl)benzamide]: the Ki is 100 to 1000 nM.

For the origin of these results see patent US8410112B2, “Compounds useful as inhibitors of ATR kinase” (Vertex Pharmaceuticals Incorporated, priority 2008, dated 2013).
